Results taken from patent publication US20240299299A1, “COMPOSITIONS AND METHODS FOR INCREASING THE EFFICACY OF IMMUNOTHERAPIES AND VACCINES” (The Regents of the University of Michigan, priority 2021, published 2024).

Key:
[1] = tested on: CT26 colon carcinoma cells; test: CT26 tumor model, orally administered metabolites plus α-PD-1; assay type: in vivo, BALB/c mice; settings: oral gavage 3 times every 4 days (DHB 2.4 mg, 3-methylhistidine 3 mg per mouse) plus α-PD-1 i.p.
Procedure: FIG. 6: a) Therapeutic treatment regimen. BALB/c mice were s.c. inoculated with 1.5×10^5 CT26 colon carcinoma cells. The candidate agents were orally administrated 3 times every 4 days, 100 μg α-PD-1 was injected i.p. on days 10, 14, 18 and 22. b) Average tumor growth, c) individual tumor growth. Data represent the mean±s.e.m. (n=4-5).
Animals were cared for following the federal, state and local guidelines. All work conducted on animals was in accordance with and approved by the Institutional Animal Care and Use Committee (IACUC). Female (6-8 weeks old) BALB/c mice from Jackson Laboratory were inoculated with 1.5×10^5 CT26 cells per mouse on the right flank by s.c. injection. Tumor-bearing mice were randomly assigned to different treatment groups. For intratumoral injection study, the mice were injected with 3-methylhistidine (dose: 1 mg per mouse), sodium hippurate (dose: 1 mg per mouse), disodium sebacate (dose: 1 mg per mouse), sodium ferulate (dose: 1 mg per mouse), or DHB (dose: 0.5 mg per mouse) in 40 μL PBS buffer for every other day. The mice were i.p. injected with α-PD-1 antibody (100 μg per dose; clone RMP1-14, Bioxcell) on days 9, 12, 16 and 20 post tumor inoculation. […] The tumor size was measured, and the tumor volume was calculated as ½×(length×width^2). […]

OT-I CD8+ T cells [2] = test: Tcm differentiation of isolated OT-I CD8+ T cells activated with α-CD3/α-CD28 in the absence of dendritic cells; assay type: cell-based, mice; settings: α-CD3/α-CD28 activation; 3-methylhistidine 3 mM, DHB 100 μM; day 7
Procedure: (§1) FIG. 2: a) OT-I CD8+ T cells were cultured with different metabolites in vitro as indicated, b,c) shown is the frequency of CD44^+CD62L^+ Tcm CD8+ T cells on day 8. d) OT-I CD8+ T cells were activated with α-CD3/α-CD28 antibodies in presence of metabolites as indicated and shown is the Tcm CD8+ T cells on day 7. Data represent the mean±s.e.m. (n=5).
(§2) Splenocytes from OT-I mice were obtained aseptically. The cells were cultured in 96-well plates (1×10^5 cells per well). For Tcm differentiation study, cells were activated with SIINFEKL peptide (4×10^−9M) in the presence of various metabolites (arginine: 3 mM; 3-methylhistidine: 3 mM; N-acetylneuraminate: 100 μM; disodium sebacate: 100 μM; DHB: 100 μM; pantothenate: 100 μM; γ-aminobutyric acid: 100 μM; glycerol: 100 μM; AICAR: 100 μM, sodium ferulate: 100 μM) for 3 days. Then cells were washed three times with T-cell medium and further cultured with IL-2 (10 ng ml^−1; PeproTech) in the presence of metabolites for 5 days. The cells were then washed twice and re-activated with SIINFEKL peptide (10 μM) for 2 h. The suspension cells were collected, blocked with CD16/32 antibody and stained with the fixable viability dye eFluor 450, FITC-CD44 rat anti-human/mouse and PE-CD62L monoclonal antibody. […] Tcf1^+CD8^+, CD44^+CD62L^+CD8^+ and survival (stained with Annexin V-APC and PI) T cells were detected via flow cytometry.

OT-I CD8+ T cells [3] = test: CD8+ T cell survival upon IL-2 withdrawal (Annexin V/PI); assay type: cell-based, mice; settings: dependent on the dose of metabolites
Procedure: FIG. 4: a) OT-I CD8+ T cells were cultured with different metabolites in vitro as indicated, b,c) shown are the level of survival CD8+ T cells (Annexin V^−PI^−) as well as the representative flow cytometry plots on day 5.5. Data represent the mean±s.e.m. (n=5).
as §2, with “antibody. To test if the central memory CD8+ T cells differentiation is dependent on dendritic cells, CD8 T cells isolated from the spleen in OT-I mice were incubated in the 96-well plate, which was precoated with anti-hamster IgG antibody. […] (1 μg mL^−1) and IL-2 (100 U mL^−1) were added into each well in the presence of 3-methylhistidine (3 mM), DHB (100 μM), or sodium ferulate (100 μM) for 2 days. Then cells were washed for three times to remove α-CD3/α-CD28 antibodies and further incubated with metabolites and IL-2 (10 ng ml^−1) for 5 days. Thereafter, cells were collected for central memory CD8^+ T cells analysis. For CD8^+ T cells survival study, cells were activated with antigen peptide as above, following with thoroughly washing, and incubation in presence of IL-2 for 2 days.” for “antibody.”

[4] = tested on: CT26 colon carcinoma cells; test: CT26 tumor model, intratumoral metabolites plus α-PD-1; assay type: in vivo, BALB/c mice
Procedure: FIG. 5: a) Therapeutic treatment regimen. BALB/c mice were s.c. inoculated with 1.5×10^5 CT26 colon carcinoma cells. The candidate metabolites were injected intratumorally every other day, 100 μg α-PD-1 was i.p. injected on days 9, 12, 16 and 20. b) Average tumor growth, c) individual tumor growth, and d) overall Kaplan-Meier survival are shown. Data represent the mean±s.e.m. (n=5).
Animals were cared for following the federal, state and local guidelines. All work conducted on animals was in accordance with and approved by the Institutional Animal Care and Use Committee (IACUC). Female (6-8 weeks old) BALB/c mice from Jackson Laboratory were inoculated with 1.5×10^5 CT26 cells per mouse on the right flank by s.c. injection. Tumor-bearing mice were randomly assigned to different treatment groups. For intratumoral injection study, the mice were injected with 3-methylhistidine (dose: 1 mg per mouse), sodium hippurate (dose: 1 mg per mouse), disodium sebacate (dose: 1 mg per mouse), sodium ferulate (dose: 1 mg per mouse), or DHB (dose: 0.5 mg per mouse) in 40 μL PBS buffer for every other day. The mice were i.p. injected with α-PD-1 antibody (100 μg per dose; clone RMP1-14, Bioxcell) on days 9, 12, 16 and 20 post tumor inoculation. For oral administration study, the mice were injected with 3-methylhistidine (dose: 3 mg per mouse), sodium hippurate (dose: 3 mg per mouse), disodium sebacate (dose: 3 mg per mouse), sodium ferulate (dose: 3 mg per mouse), or DHB (dose: 2.4 mg per mouse) in PBS buffer for 3 times every 4 days. α-PD-1 was injected on days 10, 14, 18 and 22. The tumor size was measured, and the tumor volume was calculated as ½×(length×width^2). Tumor-bearing mice were euthanized when the tumor size reached 1.5 cm in any diameter or when the animals became moribund with severe weight loss (>20%) or tumor ulceration.

OT-I CD8+ T cells [5] = test: In vitro central memory (Tcm) differentiation of OT-I CD8+ T cells activated with SIINFEKL peptide and IL-2 with metabolites; assay type: cell-based, mice; settings: day 8; metabolite-supplemented medium (arginine 3 mM, 3-methylhistidine 3 mM, DHB 100 μM, sodium ferulate 100 μM)
Procedure: as §1
(§3) Splenocytes from OT-I mice were obtained aseptically. The cells were cultured in 96-well plates (1×10^5 cells per well). For Tcm differentiation study, cells were activated with SIINFEKL peptide (4×10^−9M) in the presence of various metabolites (arginine: 3 mM; 3-methylhistidine: 3 mM; N-acetylneuraminate: 100 μM; disodium sebacate: 100 μM; DHB: 100 μM; pantothenate: 100 μM; γ-aminobutyric acid: 100 μM; glycerol: 100 μM; AICAR: 100 μM, sodium ferulate: 100 μM) for 3 days. Then cells were washed three times with T-cell medium and further cultured with IL-2 (10 ng ml^−1; PeproTech) in the presence of metabolites for 5 days. The cells were then washed twice and re-activated with SIINFEKL peptide (10 μM) for 2 h. The suspension cells were collected, blocked with CD16/32 antibody and stained with the fixable viability dye eFluor 450, FITC-CD44 rat anti-human/mouse and PE-CD62L monoclonal antibody. To test if the central memory CD8+ T cells differentiation is dependent on dendritic cells, CD8 T cells isolated from the spleen in OT-I mice were incubated in the 96-well plate, which was precoated with anti-hamster IgG antibody. […] (1 μg mL^−1) and IL-2 (100 U mL^−1) were added into each well in the presence of 3-methylhistidine (3 mM), DHB (100 μM), or sodium ferulate (100 μM) for 2 days. Then cells were washed for three times to remove α-CD3/α-CD28 antibodies and further incubated with metabolites and IL-2 (10 ng ml^−1) for 5 days. Thereafter, cells were collected for central memory CD8^+ T cells analysis. For CD8^+ T cells survival study, cells were activated with antigen peptide as above, following with thoroughly washing, and incubation in presence of IL-2 for 2 days. Metabolites were added during this incubation (arginine: 3 mM, 1 mM; 3-methylhistidine: 3 mM, 1 mM, 500 μM, 100 μM; N-acetylneuraminate: 100 μM; disodium sebacate: 100 μM; DHB: 100 μM, 50 μM, 20 μM; pantothenate: 100 μM; γ-aminobutyric acid: 100 μM; glycerol: 100 μM; AICAR: 100 μM). Then cells were further incubated in absence of both IL-2 and metabolites for 36 h to induce the apoptosis/dead. For Tcf1^+CD8^+ differentiation study, cells were activated with antigen peptide as above, followed by thoroughly washing, and incubation with metabolites in presence of IL-2 for 3 days. […] Tcf1^+CD8^+, CD44^+CD62L^+CD8^+ and survival (stained with Annexin V-APC and PI) T cells were detected via flow cytometry.

OT-I CD8+ T cells [6] = test: Tcf1+CD8+ differentiation of OT-I T cells with metabolites; assay type: cell-based, mice; settings: day 6
Procedure: FIG. 3: a) OT-I CD8+ T cells were cultured with different metabolites in vitro as indicated, b,c) shown are the frequency of the Tcf1^+CD8+ T cells and the representative flow cytometry plots on day 6. Data represent the mean±s.e.m. (n=5).
as §3, with “days.” for “days. Metabolites were added during this incubation (arginine: 3 mM, 1 mM; 3-methylhistidine: 3 mM, 1 mM, 500 μM, 100 μM; N-acetylneuraminate: 100 μM; disodium sebacate: 100 μM; DHB: 100 μM, 50 μM, 20 μM; pantothenate: 100 μM; γ-aminobutyric acid: 100 μM; glycerol: 100 μM; AICAR: 100 μM). Then cells were further incubated in absence of both IL-2 and metabolites for 36 h to induce the apoptosis/dead. For Tcf1^+CD8^+ differentiation study, cells were activated with antigen peptide as above, followed by thoroughly washing, and incubation with metabolites in presence of IL-2 for 3 days.”

[7] = tested on: CT26 colon carcinoma cells; test: CT26 tumor model, metabolite monotherapy i.p. without α-PD-1; assay type: in vivo, BALB/c mice; settings: monotherapy without α-PD-1 IgG; i.p. DHB 2.4 mg or 3-methylhistidine 3 mg per dose
Procedure: FIG. 7: a-d) In vitro cell viability of DHB at various concentrations in activated T cells, MC38, B16F10, and CT26 tumor cells. e) BALB/c mice were s.c. inoculated with 1.5×10^5 CT26 colon carcinoma cells. DHB (2.4 mg per dose) or 3-methylhistidine (3 mg per dose) was i.p. injected 3 times every 4 days, 100 μg α-PD-1 was i.p. injected on days 11, 15, and 20. Shown is the average tumor growth. Data represent the mean±s.e.m. (n=4-5).

cancer cells = settings: reported in literature (Eroglu et al.); cited from earlier work

Row | SMILES | efficacy of α-PD-1 treatment [1] | induction of central memory CD8+ T cells in the absence of dendritic cells (OT-I CD8+ T cells [2]) | survival of activated CD8+ T cells (OT-I CD8+ T cells [3]) | systemic antitumor efficacy of α-PD-1 treatment and CT26 tumor growth ([4]; intratumoral every other day (DHB 0.5 mg, 3-methylhistidine 1 mg per mouse) plus α-PD-1 i.p.) | tumor-free mice on day 70 ([4]; intratumoral metabolite plus α-PD-1 i.p.) [%] | differentiation of CD44+CD62L+ central memory CD8+ T cells (OT-I CD8+ T cells [5]) | frequency of Tcf1+CD8+ T cells (OT-I CD8+ T cells [6]) | tumor growth in vivo [7] | apoptosis in cancer cells (cancer cells)
1 | Cn1cncc1C[C@H](N)C(=O)O [3-methylhistidine] | improved the efficacy of α-PD-1 treatment | can also induce central memory CD8^+ T cells | significantly increased the survival | improved the systemic antitumor efficacy of α-PD-1 treatment and slowed down the CT26 tumors growth | 80 | significantly increased the differentiation | increased the frequency | did not inhibit the tumor growth | 
2 | COc1cc(/C=C/C(=O)O)ccc1O [Ferulic acid] |  |  |  |  |  |  |  |  | can induce apoptosis
